Laboratory results reported in patent publication US10968214B2, “KRas G12C inhibitors” (Eli Lilly and Company, priority 2018, dated 2021).
Read-outs that look alike come from different tables or passages of the source.

Assays:
H1373 = assay: CellTiterGlo Cell Proliferation Assay, H1373; type: cell-based; settings: Homo sapiens, NCI-H1373, KRas G12C, Lung, 96 hr
Experimental: (§1) A panel of tumor cell lines harboring KRas G12C or other KRas mutations are collected (Table 6). All cell lines are from ATCC or other sources indicated.
(§2) Typically cells are cultured in RPMI1640 or Dulbecco's modified Eagle's medium (DMEM, GIBCO) supplemented with 10% FBS (GIBCO, Invitrogen). For 2D culture cells (4×10^3/well) maintained in growth medium described above, are plated onto 96 well tissue culture plates Corning® Cat. 3603) a day before the treatment. For 3D culture 8000 cells/well are seeded onto 96 well ultra-low attachment tissue culture plates (Corning, #3474). The cells are treated compound for 96 hr, and then are analyzed for viability using the CellTiterGlo® Luminescent Cell Viability Assay® (Promega #G7572 for 2D and Promega #G9683 for 3D cultures) according to manufacturer's instructions and an EnVision™ plate reader. Nonlinear regression and sigmoidal dose-response curves are used to calculate the half maximal inhibitory concentration (IC50) with GraphPad Prism 4® software.

SW1573 = assay: CellTiterGlo Cell Proliferation Assay, SW1573; type: cell-based; settings: Homo sapiens, KRas G12C, Lung, 96 hr, read-out: IC50 (μM) in 2 D cell proliferation
Experimental: as §1, §2

IC50 (H1373; read-out: IC50 (μM) in 2 D cell proliferation): 0.209 µM | IC50 (H1373; read-out: IC50 (μM) in 3 D spheroid cell proliferation): 0.02 µM | IC50 (SW1573): 16.7 µM
Structure (SMILES): C=CC(=O)N1CCN(c2ncnc3c(F)c(-c4ccc(F)c5sc(N)nc45)c(Cl)cc23)CC1 [Example 1, 1-{4-[7-(2-Amino-7-fluoro-1,3-benzothiazol-4-yl)-6-chloro-8-fluoroquinazolin-4-yl]piperazin-1-yl}prop-2-en-1-one]
